Read-outs that look alike come from different tables or passages of the source. Values belong to the molecule of their own block, whether it stands above or below them.
Tested on: AsPC-1 cells
Test: phospho-ERK HTRF assay in AsPC-1 cells, 4 h treatment
Type: cell-based
Conditions: Homo sapiens, ASPC1
[1] = AsPC-1, 4h, Table 1b, read-out: PERK IC50 (AsPC-1, 4h)
[2] = AsPC-1, 4H, Table 1a class column, read-out: pERK IC50 activity range (*)
[3] = AsPC-1, 4H, Table 1a, read-out: PERK IC50 (AsPC-1, 4H)

SMILES: CN(C)C(=O)c1nn2c(c1Cl)CN(c1nc(OC[C@@]34CCCN3C[C@H](F)C4)nc3c1COC(c1cc(N)cc(Cl)c1C(F)(F)F)C3)CCC2 (stereo partly shown) [compound 236]
IC50 [1]: < 10 nM

IC50 [2]: 31 to 100 nM
IC50 [3]: 56 nM
SMILES: CN(C)C(=O)c1nn2c(c1Cl)CN(c1nc(OCC34CCCN3CC(=C(F)F)C4)nc3c1COC(c1c(C(F)(F)F)ccc(N)c1F)C3)CCC2 (stereo not shown) [compound 231]

SMILES: CCN(CC)C(=O)c1nn2c(c1Cl)CN(c1nc(OC[C@@]34CCCN3C/C(=C\F)C4)nc3c1CO[C@H](c1c(F)c(N)cc(Cl)c1C(F)(F)F)C3)CCC2 [compound 434]
IC50 [1]: < 10 nM

IC50 [2]: > 500 nM
IC50 [3]: > 10000 nM
SMILES: CN(C)C(=O)c1nn2c(c1Cl)CN(c1nc(OC[C@@]34CCCN3CC(=C(F)F)C4)nc3c1CO[C@@H](c1c(C(F)(F)F)ccc(N)c1F)C3)CCC2 [231b, 5-((R)-7-(3-amino-2-fluoro-6-(trifluoromethyl)phenyl)-2-(((S)-2-(difluoromethylene)tetrahydro-1H-pyrrolizin-7a(5H)-yl)methoxy)-7,8-dihydro-5H-pyrano[4,3-d]pyrimidin-4-yl)-3-chloro-N,N-dimethyl-5,6,7,8-tetrahydro-4H-pyrazolo[1,5-a][1,4]diazepine-2-carboxamide]

SMILES: CC#Cc1cc(N)cc([C@@H]2Cc3nc(OC[C@@]45CCCN4C/C(=C\F)C5)nc(N4CCCn5nc(C(=O)N6CCCC6)c(Cl)c5C4)c3CO2)c1C(F)(F)F [compound 430]
IC50 [1]: < 10 nM

SMILES: Cc1c(C(=O)N2CCCC2)nn2c1CN(c1nc(OC[C@@]34CCCN3C/C(=C\F)C4)nc3c1CO[C@H](c1cc(N)cc(Cl)c1C(F)(F)F)C3)CCC2 [compound 421]
IC50 [1]: < 10 nM

SMILES: Cc1c(C(=O)N(C)C)nn2c1CN(c1nc(OC[C@@]34CCCN3C/C(=C\F)C4)nc3c1CO[C@H](c1c(F)c(N)cc(Cl)c1C(F)(F)F)C3)CCC2 [compound 440]
IC50 [1]: < 10 nM

SMILES: CCN(C)C(=O)c1nn2c(c1Cl)CN(c1nc(OC[C@@]34CCCN3C[C@H](F)C4)nc3c1CO[C@H](c1c(F)c(N)cc(Cl)c1C(F)(F)F)C3)CCC2 [compound 433]
IC50 [1]: < 10 nM

SMILES: Nc1ccc(C(F)(F)F)c([C@@H]2Cc3nc(OC[C@@]45CCCN4C[C@H](F)C5)nc(N4CCCS(=O)(=O)CC4)c3CO2)c1F [compound 204]
IC50 [2]: > 500 nM
IC50 [3]: > 10000 nM

SMILES: CN(C)C(=O)c1nn2c(c1Cl)CN(c1nc(OC[C@@]34CCCN3C[C@H](F)C4)nc3c1CO[C@@H](c1c(F)c(N)cc(Cl)c1C(F)(F)F)C3)CCC2 [213b]
IC50 [2]: 101 to 500 nM
IC50 [3]: 320 nM

SMILES: CN(C)C(=O)c1nn2c(c1Cl)CN(c1nc(OC[C@@]34CCCN3C/C(=C\F)C4)nc3c1CO[C@@H](c1c(F)c(N)cc(Cl)c1C(F)(F)F)C3)CCC2 [247b, 5-((R)-7-(3-amino-5-chloro-2-fluoro-6-(trifluoromethyl)phenyl)-2-(((S,Z)-2-(fluoromethylene)tetrahydro-1H-pyrrolizin-7a(5H)-yl)methoxy)-7,8-dihydro-5H-pyrano[4,3-d]pyrimidin-4-yl)-3-chloro-N,N-dimethyl-5,6,7,8-tetrahydro-4H-pyrazolo[1,5-a][1,4]diazepine-2-carboxamide]
IC50 [2]: > 500 nM
IC50 [3]: 615 nM

SMILES: CN(C)C(=O)c1nn2c(c1Cl)CN(c1nc(OC[C@@]34CCCN3C[C@H](F)C4)nc3c1COC(c1c(C(F)(F)F)ccc(Br)c1F)C3)CC1(COC1)C2 (stereo partly shown) [compound 218]
IC50 [2]: > 500 nM
IC50 [3]: > 10000 nM

SMILES: Cc1c(C(=O)N(C)C)nn2c1CN(c1nc(OC[C@@]34CCCN3C/C(=C\F)C4)nc3c1CO[C@H](c1cc(N)cc(Cl)c1C(F)(F)F)C3)CCC2 [compound 300, 5-((S)-7-(5-amino-3-chloro-2-(trifluoromethyl)phenyl)-2-(((S,Z)-2-(fluoromethylene)tetrahydro-1H-pyrrolizin-7a(5H)-yl)methoxy)-7,8-dihydro-5H-pyrano[4,3-d]pyrimidin-4-yl)-N,N,3-trimethyl-5,6,7,8-tetrahydro-4H-pyrazolo[1,5-a][1,4]diazepine-2-carboxamide]
IC50 [1]: < 10 nM

SMILES: CN(C)C(=O)c1nn2c(c1Cl)CN(c1nc(OC[C@@]34CCCN3C[C@H](F)C4)nc3c1CO[C@H](c1c(F)c(N)cc(Cl)c1C(F)(F)F)C3)CCC2 [213a, 5-((S)-7-(3-amino-5-chloro-2-fluoro-6-(trifluoromethyl)phenyl)-2-(((2R,7aS)-2-fluorotetrahydro-1H-pyrrolizin-7a(5H)-yl)methoxy)-7,8-dihydro-5H-pyrano[4,3-d]pyrimidin-4-yl)-3-chloro-N,N-dimethyl-5,6,7,8-tetrahydro-4H-pyrazolo[1,5-a][1,4]diazepine-2-carboxamide]
IC50 [1]: < 10 nM

SMILES: CN(C)C(=O)c1nn2c(c1Cl)CN(c1nc(OC[C@@]34CCCN3C/C(=C\F)C4)nc3c1CO[C@H](c1cc(N)cc(F)c1C(F)(F)F)C3)CCC2 [compound 410]
IC50 [1]: < 10 nM

SMILES: CON(C)C(=O)c1nn2c(c1Cl)CN(c1nc(OC[C@@]34CCCN3C/C(=C\F)C4)nc3c1CO[C@H](c1c(F)c(N)cc(Cl)c1C(F)(F)F)C3)CCC2 [compound 461]
IC50 [1]: < 10 nM

SMILES: Nc1ccc(C(F)(F)F)c([C@@H]2Cc3nc(OC[C@@]45CCCN4C[C@H](F)C5)nc(N4CCNC(=O)CC4)c3CO2)c1F [compound 205]
IC50 [2]: > 500 nM
IC50 [3]: > 10000 nM

SMILES: CN(C)C(=O)c1nn2c(c1Cl)CN(c1nc(OC[C@@]34CCCN3C[C@H](F)C4)nc3c1CO[C@H](c1c(C(F)(F)F)ccc(I)c1F)C3)CCC2 [compound 219]
IC50 [2]: > 500 nM
IC50 [3]: 896 nM

SMILES: Cc1cc(N)cc([C@@H]2Cc3nc(OC[C@@]45CCCN4C/C(=C\F)C5)nc(N4CCCn5nc(C(=O)N6CCCC6)cc5C4)c3CO2)c1C(F)(F)F [compound 404]
IC50 [2]: 10 to 30 nM

IC50 [2]: 31 to 100 nM
IC50 [3]: 32 nM
SMILES: CN(C)C(=O)c1nn2c(c1Cl)CN(c1nc(OC[C@@]34CCCN3CC(=C(F)F)C4)nc3c1CO[C@H](c1c(C(F)(F)F)ccc(N)c1F)C3)CCC2 [231a, 5-((S)-7-(3-amino-2-fluoro-6-(trifluoromethyl)phenyl)-2-(((S)-2-(difluoromethylene)tetrahydro-1H-pyrrolizin-7a(5H)-yl)methoxy)-7,8-dihydro-5H-pyrano[4,3-d]pyrimidin-4-yl)-3-chloro-N,N-dimethyl-5,6,7,8-tetrahydro-4H-pyrazolo[1,5-a][1,4]diazepine-2-carboxamide]

SMILES: [2H]C([2H])([2H])N(C(=O)c1nn2c(c1Cl)CN(c1nc(OC[C@@]34CCCN3C[C@H](F)C4)nc3c1CO[C@@H](c1c(F)c(N)cc(Cl)c1C(F)(F)F)C3)CCC2)C([2H])([2H])[2H] [250b]
IC50 [2]: 10 to 30 nM

SMILES: Nc1ccc(C(F)(F)F)c(C2Cc3nc(OC[C@@]45CCCN4C[C@H](F)C5)nc(N4CCCC(=O)CC4)c3CO2)c1F (stereo partly shown) [compound 206]
IC50 [2]: > 500 nM
IC50 [3]: > 10000 nM

SMILES: CN(C)C(=O)c1nn2c(c1Cl)CN(c1nc(OC[C@@]34CCCN3C/C(=C\F)C4)nc3c1COC(c1cc(N)cc(F)c1C(F)(F)F)C3)CCC2 (stereo partly shown) [compound 246]
IC50 [2]: 10 to 30 nM
IC50 [3]: 15.9 nM

SMILES: Cc1c(C(=O)N(C)C)nn2c1CN(c1nc(OC[C@@]34CCCN3C[C@H](F)C4)nc3c1CO[C@H](c1cc(N)cc(Cl)c1C(F)(F)F)C3)CCC2 [compound 414]
IC50 [1]: < 10 nM

SMILES: CN(C)C(=O)n1cc2c(n1)CCCN(c1nc(OC[C@@]34CCCN3C[C@H](F)C4)nc3c1COC(c1c(C(F)(F)F)ccc(N)c1F)C3)C2 (stereo partly shown) [compound 228]
IC50 [2]: > 500 nM
IC50 [3]: 3070 nM

SMILES: CN(C)C(=O)c1nn2c(c1Cl)CN(c1nc(OC[C@@]34CCCN3C[C@H](F)C4)nc3c1CO[C@H](c1cc(N)cc(Cl)c1C(F)(F)F)C3)CCC2 [compound 234, 5-((S)-7-(5-amino-3-chloro-2-(trifluoromethyl)phenyl)-2-(((2R,7aS)-2-fluorotetrahydro-1H-pyrrolizin-7a(5H)-yl)methoxy)-7,8-dihydro-5H-pyrano[4,3-d]pyrimidin-4-yl)-3-chloro-N,N-dimethyl-5,6,7,8-tetrahydro-4H-pyrazolo[1,5-a][1,4]diazepine-2-carboxamide]
IC50 [1]: < 10 nM

SMILES: CN1CCOc2c(nn3c2CN(c2nc(OC[C@@]45CCCN4C[C@H](F)C5)nc4c2CO[C@@H](c2c(C(F)(F)F)ccc(N)c2F)C4)CCC3)C1=O [212b]
IC50 [2]: > 500 nM
IC50 [3]: > 10000 nM

SMILES: Cc1cc(N)cc([C@@H]2Cc3nc(OC[C@@]45CCCN4C/C(=C\F)C5)nc(N4CCCn5nc(C(=O)N6CCC6)cc5C4)c3CO2)c1C(F)(F)F [compound 403]
IC50 [2]: 10 to 30 nM

SMILES: CN(C(=O)c1nn2c(c1Cl)CN(c1nc(OC[C@@]34CCCN3C[C@H](F)C4)nc3c1COC(c1c(C(F)(F)F)ccc(N)c1F)C3)CCC2)C1CC1 (stereo partly drawn) [compound 232, 5-(7-(3-amino-2-fluoro-6-(trifluoromethyl)phenyl)-2-(((2R,7aS)-2-fluorotetrahydro-1H-pyrrolizin-7a(5H)-yl)methoxy)-7,8-dihydro-5H-pyrano[4,3-d]pyrimidin-4-yl)-3-chloro-N-cyclopropyl-N-methyl-5,6,7,8-tetrahydro-4H-pyrazolo[1,5-a][1,4]diazepine-2-carboxamide]
IC50 [2]: 101 to 500 nM
IC50 [3]: 247 nM
IC50 (AsPC-1, 4H, individual (R) diastereomer of Ex. 232, read-out: PERK IC50 (AsPC-1, 4H) nM, individual diastereomer (R)): > 1000 nM
IC50 (AsPC-1, 4H, individual (S) diastereomer of Ex. 232, read-out: PERK IC50 (AsPC-1, 4H) nM, individual diastereomer (S)): 166 nM

SMILES: COCCN(C)C(=O)c1nn2c(c1Cl)CN(c1nc(OC[C@@]34CCCN3C[C@H](F)C4)nc3c1COC(c1c(C(F)(F)F)ccc(N)c1F)C3)CCC2 (stereo partly shown) [compound 225]
IC50 [2]: 31 to 100 nM
IC50 [3]: 82 nM

SMILES: CN(C)C(=O)c1nn2c(c1Cl)CN(c1nc(OC[C@@]34CCCN3C[C@H](F)C4)nc3c1CO[C@H](c1c(F)c(N)cc(F)c1C(F)(F)F)C3)CCC2 [214a, 5-((S)-7-(3-amino-2,5-difluoro-6-(trifluoromethyl)phenyl)-2-(((2R,7aS)-2-fluorotetrahydro-1H-pyrrolizin-7a(5H)-yl)methoxy)-7,8-dihydro-5H-pyrano[4,3-d]pyrimidin-4-yl)-3-chloro-N,N-dimethyl-5,6,7,8-tetrahydro-4H-pyrazolo[1,5-a][1,4]diazepine-2-carboxamide]
IC50 [1]: < 10 nM

SMILES: Cc1c(C(=O)N(C)C)nn2c1CN(c1nc(OC[C@@]34CCCN3CC(=C(F)F)C4)nc3c1CO[C@H](c1cc(N)cc(F)c1C(F)(F)F)C3)CCC2 [compound 407]
IC50 [2]: 10 to 30 nM

Reference: patent US20260224589A1 (priority 2023, published 2026)
